Source: patent publication US10039747B2, “Tetrahydrocyclopentapyrrole derivatives and a method for preparing the same” (Daewoong Pharmaceutical Co., Ltd., priority 2013, dated 2018)
pIC50: −log10 of the molar value.

Target: T1, H+/K+-ATPase (Sus scrofa, UniProt P19156)
T1 construct: reaction buffer solution (60 mmol/l Tris-HCl buffer solution, pH 7.4) containing hog gastric vesicle; from tissue; host or cells: hog stomach (gastric vesicles, by centrifugation after Rabon et al. 1988)
Experiment: Inhibition of proton pump (H+/K+-ATPase) activity in hog gastric vesicles
Format: biochemical
Conditions: K+ specific H+/K+-ATPase activity, pH 7.4, 37° C. for 40 minutes, malachite green
Protocol: 1) Preparation of Gastric Vesicles
Gastric vesicles were prepared from hog stomach by centrifugation (Edd C. Rabon et al., Preparation of Gastric H^+,K^+-ATPase, Methods in enzymology, vol. 157 Academic Press Inc., (1988), pp. 649-654). The protein contents of the prepared gastric vesicles were quantified with a Bicinchoninic Acid (BCA) kit.
2) Measurement of Effect of Inhibiting Proton Pump (H^+/K^+-ATPase) Activity
The effect of inhibiting proton pump activity by the compound of the present invention was measured in a 96-well plate. In this experiment, K^+ specific H^+/K^+-ATPase activity was calculated based on the difference between H^+/K^+-ATPase activity in the presence of K^+ ions and H^+/K^+-ATPase activity in the absence of K^+ ions. In the 96-well plate, to negative and positive control groups, 0.5% dimethylsulfoxide (DMSO) in buffer was added, and to the test groups, the compound of the present invention was added. All the analyses were conducted at room temperature with the reaction volume of 100 μl. To a reaction buffer solution (60 mmol/l Tris-HCl buffer solution, pH 7.4) containing hog gastric vesicle, DMSO and each concentration of compound were added, and then, 10 μl of a 10 mmol/l adenosine triphosphate tris buffer solution (60 mmol/l Tris-HCl buffer solution, pH 7.4) was added to initiate an enzyme reaction. The enzyme reaction was conducted at 37° C. for 40 minutes, 50 μl of a malachite green solution (0.12% malachite green solution, 5.8% ammonium molybdate and 11% tween 20 were mixed at a ratio of 100:67:2 in 6.2 N sulfuric acid) was added to stop the reaction, and 50 μl of 15.1% sodium citrate was added. During the reaction, the amount of monophosphate (Pi) was measured at 570 nm using micro plate reader (FLUOstar Omega, BMG Company). Inhibition rate (%) was measured from the activity values of the control groups and the activity values of various concentrations of the test compound, and IC50 of the test compound was calculated from each % inhibition value of the compound using Logistic 4-parameter function of Sigmaplot 8.0 program.

T1 sequence (P19156 2-1034 limits assumed): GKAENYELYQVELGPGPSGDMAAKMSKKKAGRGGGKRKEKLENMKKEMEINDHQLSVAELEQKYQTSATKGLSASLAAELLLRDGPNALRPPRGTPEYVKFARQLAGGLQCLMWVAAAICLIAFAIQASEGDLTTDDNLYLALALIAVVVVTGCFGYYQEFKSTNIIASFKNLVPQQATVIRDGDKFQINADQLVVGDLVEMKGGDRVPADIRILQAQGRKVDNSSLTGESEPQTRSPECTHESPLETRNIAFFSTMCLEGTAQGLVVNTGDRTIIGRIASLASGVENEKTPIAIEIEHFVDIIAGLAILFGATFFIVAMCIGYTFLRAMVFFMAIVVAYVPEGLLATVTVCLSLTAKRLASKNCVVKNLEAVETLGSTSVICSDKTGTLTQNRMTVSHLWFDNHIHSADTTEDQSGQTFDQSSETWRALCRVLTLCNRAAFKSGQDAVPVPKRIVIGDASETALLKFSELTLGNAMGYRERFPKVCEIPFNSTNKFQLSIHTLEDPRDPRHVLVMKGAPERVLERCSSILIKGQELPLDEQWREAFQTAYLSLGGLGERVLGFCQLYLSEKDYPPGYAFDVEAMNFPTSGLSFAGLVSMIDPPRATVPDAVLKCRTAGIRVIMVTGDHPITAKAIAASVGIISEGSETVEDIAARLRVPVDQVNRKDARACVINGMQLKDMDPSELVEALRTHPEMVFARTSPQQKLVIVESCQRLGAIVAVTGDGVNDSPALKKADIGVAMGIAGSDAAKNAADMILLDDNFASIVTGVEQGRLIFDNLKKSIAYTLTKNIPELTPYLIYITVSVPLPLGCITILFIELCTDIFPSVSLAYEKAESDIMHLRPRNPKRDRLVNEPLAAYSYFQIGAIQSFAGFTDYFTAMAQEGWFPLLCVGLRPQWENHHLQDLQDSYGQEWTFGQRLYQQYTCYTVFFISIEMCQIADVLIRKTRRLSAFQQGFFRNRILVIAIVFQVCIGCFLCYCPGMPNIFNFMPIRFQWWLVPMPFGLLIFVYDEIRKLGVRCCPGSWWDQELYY
T1 sequence (P18434 whole entry partner): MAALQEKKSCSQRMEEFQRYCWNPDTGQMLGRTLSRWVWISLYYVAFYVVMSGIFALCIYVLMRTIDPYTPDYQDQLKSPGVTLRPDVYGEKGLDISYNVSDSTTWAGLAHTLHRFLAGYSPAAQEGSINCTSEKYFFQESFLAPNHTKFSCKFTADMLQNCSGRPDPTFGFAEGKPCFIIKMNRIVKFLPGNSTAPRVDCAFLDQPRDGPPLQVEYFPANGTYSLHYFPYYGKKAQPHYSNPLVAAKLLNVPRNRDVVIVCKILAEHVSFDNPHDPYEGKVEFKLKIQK

Q: How did the pIC50 turn out when `CNC1CCc2c1cn(S(=O)(=O)c1nccn1C)c2-c1ccccc1F` (stereo not shown) [Example 101, 1-(2-fluorophenyl)-N-methyl-2-((1-methyl-1H-imidazol-2-yl)sulfonyl)-2,4,5,6-tetrahydrocyclopenta[c]pyrrol-4-amine] was run?
A: 4.73

Q: `CNC1CCc2c1cn(S(=O)(=O)c1cnc3c(c1)c(C)nn3C)c2-c1ccccc1F` (stereo not shown) [Example 102, 2-((1,3-dimethyl-1H-pyrazolo[3,4-b]pyridin-5-yl)sulfonyl)-1-(2-fluorophenyl)-N-methyl-2,4,5,6-tetrahydrocyclopenta[c]pyrrol-4-amine] was tested. Which pIC50 did it give?
A: 5.00

Q: With `CNC1CCc2c1cn(S(=O)(=O)c1ccc(-c3ccccc3)cc1)c2-c1ccccc1F` (stereo not shown) [Example 62, 2-([1,1′-biphenyl]-4-ylsulfonyl)-1-(2-fluorophenyl)-N-methyl-2,4,5,6-tetrahydrocyclopenta[c]pyrrol-4-amine] as the compound, how does the pIC50 read?
A: 5.06

Q: How did the pIC50 turn out when `CNC1CCc2c1cn(S(=O)(=O)c1ccc(C#N)cc1Cl)c2-c1ccccc1F` (stereo not shown) [Example 67, 3-chloro-4-((1-(2-fluorophenyl)-4-(methylamino)-5,6-dihydrocyclopenta[c]pyrrol-2(4H)-yl)sulfonyl)benzonitrile] was run?
A: 5.90

Q: `CNC1CCc2c1cn(S(=O)(=O)c1c(Cl)cc(Cl)cc1Cl)c2-c1ccccc1F` (stereo not shown) [Example 85, 1-(2-fluorophenyl)-N-methyl-2-((2,4,6-trichlorophenyl)sulfonyl)-2,4,5,6-tetrahydrocyclopenta[c]pyrrol-4-amine] was tested. Which pIC50 did it give?
A: 5.66

Q: How did the pIC50 turn out when `CNC1CCc2c1cn(S(=O)(=O)c1ccccc1)c2-c1ccccc1F` (stereo not shown) [Example 43, 1-(2-fluorophenyl)-N-methyl-2-(phenylsulfonyl)-2,4,5,6-tetrahydrocyclopenta[c]pyrrol-4-amine] was run?
A: 6.37

Q: With `CN(C)C1CCCc2c1cn(S(=O)(=O)c1cccnc1)c2-c1ccccc1F` (stereo not shown) [Example 144, 1-(2-fluorophenyl)-N,N-dimethyl-2-(pyridin-3-ylsulfonyl)-4,5,6,7-tetrahydro-2H-isoindole-4-amine] as the compound, how does the pIC50 read?
A: 5.10

Q: `CNC1CCc2c1cn(S(=O)(=O)c1cccc(Cl)c1)c2-c1ccc(N2CCOCC2)nc1` (stereo not shown) [Example 41, 2-((3-chlorophenyl)sulfonyl)-N-methyl-1-(6-morpholinopyridin-3-yl)-2,4,5,6-tetrahydrocyclopenta[c]pyrrol-4-amine] was tested. Which pIC50 did it give?
A: 5.41

Q: `CNC1CCCc2c1cn(S(=O)(=O)c1cccnc1)c2-c1ccc(F)cc1F` (stereo not shown) [Example 135, 1-(2,4-difluorophenyl)-N-methyl-2-(pyridin-3-ylsulfonyl)-4,5,6,7-tetrahydro-2H-isoindole-4-amine] was tested. Which pIC50 did it give?
A: 5.30

Q: `CNC1CCc2c1cn(S(=O)(=O)c1cccnc1)c2-c1ccsc1` (stereo not shown) [Example 94, N-methyl-2-(pyridin-3-ylsulfonyl)-1-(thiophen-3-yl)-2,4,5,6-tetrahydrocyclopenta[c]pyrrol-4-amine] was tested. Which pIC50 did it give?
A: 6.33

Q: With `CNC1CCc2c1cn(S(=O)(=O)c1cc(Cl)c(Cl)cc1Cl)c2-c1cc(Cl)ccc1Cl` (stereo not shown) [Example 83, 1-(2,5-dichlorophenyl)-N-methyl-2-((2,4,5-trichlorophenyl)sulfonyl)-2,4,5,6-tetrahydrocyclopenta[c]pyrrol-4-amine] as the compound, how does the pIC50 read?
A: 6.01

Q: How did the pIC50 turn out when `CNC1CCc2c1cn(S(=O)(=O)c1cccc(Cl)c1)c2-c1ccc(C)cc1F` (stereo not shown) [Example 18, 2-((3-chlorophenyl)sulfonyl)-1-(2-fluoro-4-methylphenyl)-N-methyl-2,4,5,6-tetrahydrocyclopenta[c]pyrrol-4-amine] was run?
A: 6.37

Q: `CNC1CCc2c1cn(S(=O)(=O)c1cccc(Cl)c1)c2C` (stereo not shown) [Example 2, 2-((3-chlorophenyl)sulfonyl)-N,1-dimethyl-2,4,5,6-tetrahydrocyclopenta[c]pyrrol-4-amine] was tested. Which pIC50 did it give?
A: 5.00

Q: With `CNC1CCc2c1cn(S(=O)(=O)c1cccc(Cl)c1Cl)c2-c1ccccc1F` (stereo not shown) [Example 64, 2-((2,3-dichlorophenyl)sulfonyl)-1-(2-fluorophenyl)-N-methyl-2,4,5,6-tetrahydrocyclopenta[c]pyrrol-4-amine] as the compound, how does the pIC50 read?
A: 6.08

Q: How did the pIC50 turn out when `CNC1CCc2c1cn(S(=O)(=O)c1cc(Cl)c(Cl)cc1Cl)c2-c1ccc(C)cc1F` (stereo not shown) [Example 82, 1-(2-fluoro-4-methylphenyl)-N-methyl-2-((2,4,5-trichlorophenyl)sulfonyl)-2,4,5,6-tetrahydrocyclopenta[c]pyrrol-4-amine] was run?
A: 6.18

Q: How did the pIC50 turn out when `CNC1CCc2c1cn(S(=O)(=O)c1cccc(Cl)c1)c2-c1ccc(C(=O)OC)cc1` (stereo not shown) [Example 15, methyl 4-(2-((3-chlorophenyl)sulfonyl)-4-(methylamino)-2,4,5,6-tetrahydrocyclopenta[c]pyrrol-1-yl)benzoate] was run?
A: 5.54

Q: How did the pIC50 turn out when `CN(C)c1cccc(S(=O)(=O)n2cc3c(c2-c2ccccc2F)CCCC3N(C)C)c1` (stereo not shown) [Example 143, 2-((3-(dimethylamino)phenyl)sulfonyl)-1-(2-fluorophenyl)-N,N-dimethyl-4,5,6,7-tetrahydro-2H-isoindole-4-amine] was run?
A: 5.30

Q: With `Cc1oc(=O)oc1COC(=O)N(C)C1CCc2c1cn(S(=O)(=O)c1cccc(F)c1)c2-c1ccc(F)cc1F` (stereo not shown) [Example 116, (5-methyl-2-oxo-1,3-dioxol-4-yl)methyl (1-(2,4-difluorophenyl)-2-((3-fluorophenyl)sulfonyl)-2,4,5,6-tetrahydrocyclopenta[c]pyrrol-4-yl)(methyl)carbamate] as the compound, how does the pIC50 read?
A: 4.58

Q: How did the pIC50 turn out when `CNC1CCCc2c1cn(S(=O)(=O)c1cccnc1)c2-c1ccccc1Cl` (stereo not shown) [Example 133, 1-(2-chlorophenyl)-N-methyl-2-(pyridin-3-ylsulfonyl)-4,5,6,7-tetrahydro-2H-isoindole-4-amine] was run?
A: 5.70

Q: How did the pIC50 turn out when `CNC1CC(C)(C)c2c1cn(S(=O)(=O)c1cccc(Cl)c1)c2-c1ccccc1F` (stereo not shown) [Example 106, 2-((3-chlorophenyl)sulfonyl)-1-(2-fluorophenyl)-N,6,6-trimethyl-2,4,5,6-tetrahydrocyclopenta[c]pyrrol-4-amine] was run?
A: 5.48

Q: How did the pIC50 turn out when `CCNC1CCc2c1cn(S(=O)(=O)c1cccnc1)c2-c1ccccc1F` (stereo not shown) [Example 103, N-ethyl-1-(2-fluorophenyl)-2-(pyridin-3-ylsulfonyl)-2,4,5,6-tetrahydrocyclopenta[c]pyrrol-4-amine] was run?
A: 5.75

Q: `CNC1CCCc2c1cn(S(=O)(=O)c1cccc(OC(F)(F)F)c1)c2-c1ccccc1F` (stereo not shown) [Example 125, 1-(2-fluorophenyl)-N-methyl-2-((3-(trifluoromethoxy)phenyl)sulfonyl)-4,5,6,7-tetrahydro-2H-isoindole-4-amine] was tested. Which pIC50 did it give?
A: 5.35

Q: With `CNC1CCc2c1cn(S(=O)(=O)c1cccc(Cl)c1)c2-c1ccc(F)cc1` (stereo not shown) [Example 11, 2-((3-chlorophenyl)sulfonyl)-1-(4-fluorophenyl)-N-methyl-2,4,5,6-tetrahydrocyclopenta[c]pyrrol-4-amine] as the compound, how does the pIC50 read?
A: 6.26

Q: With `CNC1CCc2c1cn(S(=O)(=O)c1cccc(Cl)c1)c2-c1cccnc1C(F)(F)F` (stereo not shown) [Example 38] as the compound, how does the pIC50 read?
A: 5.24

Q: How did the pIC50 turn out when `CNC1CCc2c1cn(S(=O)(=O)c1cccc(Cl)c1)c2-c1cc(Cl)c(C)cc1F` (stereo not shown) [Example 26, 1-(5-chloro-2-fluoro-4-methylphenyl)-2-((3-chlorophenyl)sulfonyl)-N-methyl-2,4,5,6-tetrahydrocyclopenta[c]pyrrol-4-amine] was run?
A: 6.21

Q: With `CNC1CCc2c1cn(Cc1cccc(F)c1)c2-c1ccccc1F` (stereo not shown) [Example 108, 2-(3-fluorobenzyl)-1-(2-fluorophenyl)-N-methyl-2,4,5,6-tetrahydrocyclopenta[c]pyrrol-4-amine] as the compound, how does the pIC50 read?
A: 5.25

Q: How did the pIC50 turn out when `COc1cccc(S(=O)(=O)n2cc3c(c2-c2ccccc2F)CCCC3N(C)C)c1` (stereo not shown) [Example 140, 1-(2-fluorophenyl)-2-((3-methoxyphenyl)sulfonyl)-N,N-dimethyl-4,5,6,7-tetrahydro-2H-isoindole-4-amine] was run?
A: 5.15

Q: With `CNC1CCc2c1cn(S(=O)(=O)c1cccc(Cl)c1)c2-c1ccoc1` (stereo not shown) [Example 31, 2-((3-chlorophenyl)sulfonyl)-1-(furan-3-yl)-N-methyl-2,4,5,6-tetrahydrocyclopenta[c]pyrrol-4-amine] as the compound, how does the pIC50 read?
A: 5.87

Q: `CNC1CCCc2c1cn(S(=O)(=O)c1cccnc1)c2-c1ccccc1F` (stereo not shown) [Example 131, 1-(2-fluorophenyl)-N-methyl-2-(pyridin-3-ylsulfonyl)-4,5,6,7-tetrahydro-2H-isoindole-4-amine] was tested. Which pIC50 did it give?
A: 5.82

Q: With `CNC1CCc2c1cn(S(=O)(=O)c1cccc(Cl)c1)c2-c1ccc2c(c1)OCO2` (stereo not shown) [Example 28, 1-(benzo[d][1,3]dioxol-5-yl)-2-((3-chlorophenyl)sulfonyl)-N-methyl-2,4,5,6-tetrahydrocyclopenta[c]pyrrol-4-amine] as the compound, how does the pIC50 read?
A: 6.23

Q: `CNC1CCc2c1cn(S(=O)(=O)c1cccc(Cl)c1)c2-c1ccc(OC)cc1` (stereo not shown) [Example 14, 2-((3-chlorophenyl)sulfonyl)-1-(4-methoxyphenyl)-N-methyl-2,4,5,6-tetrahydrocyclopenta[c]pyrrol-4-amine] was tested. Which pIC50 did it give?
A: 5.90
